Laboratory results reported in US20150258052A1, “METHODS OF USING FEXARAMINE AND AGENTS THAT INCREASE SYMPATHETIC NERVOUS SYSTEM ACTIVITY TO PROMOTE BROWNING OF WHITE ADIPOSE TISSUE” (Salk Institute for Biological Studies, priority 2014, published 2015).

Key:
[1] = test system: white adipose tissue (WAT); test: Inflammation, lipolysis and browning of white adipose tissue in Fex-treated DIO mice; type: in vivo
Description: Mice were fed on HFD for 14 weeks and subsequently subjected to daily PO injection of vehicle or fexaramine (100 mg/kg) for 5 weeks with HFD. In the bar graphs, open bars are vehicle, solid bars of fexaramine, and data represent the mean±STD. Statistical analysis was performed with the Student's t test (*p<0.05, **p<0.01).
FIG. 12F is a bar chart showing serum glycerol levels in vehicle or fexaramine-treated mice. Isoproterenol (1 μg/kg) was injected at 0 minutes and free glycerol levels were measured at the indicated time points. Data represent the mean±STD. Statistical analysis was performed with the Student's t test (*p<0.05, **p<0.01).
Mice fed a HFD for 14 weeks were maintained on a HFD and treated with vehicle or fexaramine (100 mg/kg/day os for 5 week). (I) Changes in genes associated with the browning of adipose tissue and (J) oxygen consumption rate of the stromal vascular fraction (SVF) from inguinal fat (iWAT). Data represent the mean±SD. Statistical analysis was performed with the Student's t test. *p<0.05, **p<0.01.
FIG. 13 is a set of digital images of gel electrophoreses (Western blots) showing the level of expression of various proteins in gonadal white adipose tissue (gWAT). Mice fed a HFD for 14 weeks were maintained on a HFD and treated with vehicle or fexaramine (50 mg or 100 mg/kg/day os for 5 week).
FIG. 14 is a bar chart showing that fexaramine reduces brown adipose tissue (BAT) inflammation. Mice fed a HFD for 14 weeks were maintained on a HFD and treated with vehicle or fexaramine (100 mg/kg/day os for 5 weeks). Expression of inflammatory cytokines in BAT. Data represent the mean±SD. Statistical analysis was performed with the Student's t test. *p<0.05, **p<0.01.
During obesity, adipose tissue expands by hyperplastic and/or hypertrophic growth, is chronically inflamed, and produces inflammatory cytokines that ultimately contribute to systemic metabolic dysregulation. […] These noncanonical IκB kinases were recently shown to play crucial roles in energy expenditure as a consequence of adipose tissue inflammation upon diet-induced obesity (Reilly et al., Nat Med 19:313-321, 2013).
Brown adipose-driven adaptive thermogenesis is fueled by mitochondrial oxidation of free fatty acids (FFAs) released from triglyceride stores into the circulation, predominantly by the action of hormone-sensitive lipase (HSL).

[2] = test system: FGF15 signaling and bile acid composition; test: FGF15 signaling, hepatic bile acid genes, serum bile acid composition and intestinal barrier in Fex-treated HFD mice; type: in vivo
Description: FIGS. 7A-7H show a comparative expression chart and bar charts illustrating that fexaramine increased endogenous FGF15 signaling and changes in BA composition. Mice were fed HFD for 14 weeks and then administered daily oral injections of vehicle or fexaramine (100 mg/kg) for 5 weeks with HFD. In the bar graphs, open bars represent vehicle treatment and solid bars represent fexaramine treatment, and data represent the mean±STD. Statistical analysis was performed with the Student's t test (*p<0.05, **p<0.01).
FIG. 8 is a bar graph showing hepatic Cyp7a1 levels determined by ELISA. Data represent the mean±SD. Statistical analysis was performed with the Student's t test. *p<0.05, **p<0.01.
Mice fed a HFD for 14 weeks were maintained on a HFD and treated with vehicle or fexaramine (100 mg/kg/day per os for 5 week). Serum bile acid composition was determined by mass spectrometry. N.D. not determined.
FXR activation has been reported to enhance mucosal defense gene expression and intestinal barrier function (Inagaki et al., Proc Natl Acad Sci USA 103:3920-3925, 2006; Gadaleta., et al. Gut 60:463-472, 2011).

[3] = LC/MS quantification of serum fexaramine after PO or IP administration; type: in vivo, mice
Description: FIG. 1D is a schematic diagram illustrating an experimental procedure used to evaluate fexaramine, where mice were treated with vehicle or fexaramine (100 mg/kg) via PO or IP injection, and LC/MS quantification of serum fexaramine was conducted five days later.
FIG. 1E is a bar chart illustrating serum fexaramine concentrations after administration as described in FIG. 1D. Data represent mean values±STD. Statistical analysis was performed with the Student's t test (*p<0.05, **p<0.01).
Upon exploration of the in vivo effects of fexaramine (Fex) administration, it was discovered that due to ineffectual absorption, oral (PO) and intraperitoneal (IP) drug delivery produced very different effects (FIGS. 1D and 1E).

SMILES: COC(=O)/C=C/c1cccc(N(Cc2ccc(-c3ccc(N(C)C)cc3)cc2)C(=O)C2CCCCC2)c1 [Fex, fexaramine]
- abundance of multi-locular, UCP1-expressing adipocytes in inguinal adipose tissue (immunohistochemistry) ([1]; 100 mg/kg PO 5 weeks): substantial increase
- expression of TNFα, MCP-1, IL-1α and macrophage marker F4/80 in visceral and brown adipose depots ([1]; 100 mg/kg PO 5 weeks): reduced in visceral and brown adipose depots
- expression of "brown fat-like" signature genes in inguinal adipose tissue ([1]; 100 mg/kg/day 5 week): increased the expression
- respiratory capacity (oxygen consumption rate) of stromal vascular fraction from inguinal adipose tissue ([1]; 100 mg/kg/day 5 week): increased respiratory capacity
- S6K phosphorylation (mTORC1 pathway) in gonadal WAT ([1]; Western blot): reduced S6K phosphorylation
- levels of IKK-ε and TANK-binding kinase 1 (TBK1) in gWAT ([1]; Western blot): reduced levels
- HSL phosphorylation in adipose depots ([1]; chronic Fex treatment): pronounced increase
- serum catecholamine levels ([1]; chronic Fex treatment): increased serum catecholamine levels
- serum levels of free fatty acids ([1]; chronic Fex treatment): pronounced increase
- β3-adrenergic receptor expression in gonadal adipose tissue ([1]; chronic Fex treatment): increased
- cross-sectional area of adipocytes in visceral depots (gonadal and mesenteric) ([1]; chronic Fex-treatment): markedly reduced
- FGF15 expression in intestine (RNA-Seq) ([2]; 100 mg/kg PO 5 weeks): dramatically up-regulated
- bile acid pool size (total serum BA levels) ([2]; 100 mg/kg PO 5 weeks): reducing the bile acid pool size
- ratio of unconjugated to conjugated cholic acid ([2]; 100 mg/kg PO 5 weeks): remarkably increased
- circulating FGF15 ([2]; 100 mg/kg PO 5 weeks, serum): increase in circulating FGF15
- expression of liver FXR target genes SHP and BSEP ([2]; chronic Fex treatment): not altered
- hepatic CYP7A1 expression (mRNA and protein) ([2]; chronic Fex treatment): significantly repressed
- hepatic expression of CYP8B1 and CYP27A1 ([2]; chronic Fex treatment): not affected
- expression of mucosal defense genes Occludin and Muc2 ([2]; chronic Fex-treatment): increased expression
- serum Fex level after PO relative to IP levels ([3]; acute 100 mg/kg, PO compared to IP): 10%
- concentration at 5 days ([3]; mouse, serum, PO 100 mg/kg, read-out: serum levels of Fex after PO administration): < 25 nM
